Consider 1 compound from patent US11020405B2, “Method for prevention or treatment of diabetic complications” (KANGWON NATIONAL UNIVERSITY UNIVERSITY-INDUSTRY COOPERATION …, priority 2017, dated 2021).

The test system of assay [1] is human retinal endothelial cells (HRECs). Kind of assay: Identification of receptor of midazolam through ROS concentration analysis. To be noted: 0-50 μM flumazenil or 0-30 μM PK11195 1 hr, then 20 μM midazolam 30 min, then 10 ng/ml VEGF (FIG. 10B). The class given is cell-based. The method, then: With reference to FIG. 10A, the HRECs of Test Example 1 were subjected to the respective treatments below, cultured for 10 min, treated with 10 μM H2DCFDA, stained for 10 min in a phenol-red-free low-serum medium, and measured using confocal microscopy to thus determine the fluorescence intensity of single cells.
(§1) As will be described below, flumazenil was used as a GABAA receptor antagonist and PK11195 was used as a TSOP receptor antagonist.
With reference to FIG. 10B, the HRECs of Test Example 1 were treated with 0 μM, 0.01 μM, 0.1 μM, 1 μM, 10 μM, 20 μM, and 50 μM flumazenil and 0 μM, 0.01 μM, 0.1 μM, 1 μM, 3 μM, 10 μM, and 30 μM PK11195, cultured for 1 hr, treated with 20 μM midazolam, cultured for 30 min, treated with 10 ng/ml VEGF, incubated for 10 min, treated with 10 μM H2DCFDA, stained for 10 min in a phenol-red-free low-serum medium, and then measured using confocal microscopy to thus determine the fluorescence intensity of single cells.

In assay [2] the test system is TGase. Kind of assay: Identification of receptor of midazolam through TGase activity analysis. The class given is cell-based, human. The following applies: HRECs, 0-50 μM flumazenil or 0-30 μM PK11195 1 hr, then 20 μM midazolam 30 min, then 10 ng/ml VEGF (FIG. 11B). The method, then:
With reference to FIG. 11A, the HRECs of Test Example 1 were subjected to the respective treatments below, cultured for 2 hr, treated with 1 mM 5-(biotinamido)pentylamine, incubated for 1 hr, fixed with 3.7% formaldehyde, treated with 0.2% triton X-100, treated with a blocking solution containing 138 mM NaCl, 0.1% Tween 20 and 2% BSA dissolved in a 20 mM Tris (pH 7.6) buffer, incubated for 30 min, incubated with FITC-conjugated streptavidin (1:200, v/v) for 1 hr, and then measured using confocal microscopy to thus determine the fluorescence intensity of single cells.
as §1
With reference to FIG. 11B, the HRECs of Test Example 1 were treated with 0 μM, 0.01 μM, 0.1 μM, 1 μM, 10 μM, 20 μM, and 50 μM flumazenil and 0 μM, 0.01 μM, 0.1 μM, 1 μM, 3 μM, 10 μM, and 30 μM PK11195, cultured for 1 hr, treated with 20 μM midazolam, cultured for 30 min, treated with 10 ng/ml VEGF, incubated for 10 min, treated with 1 mM 5-(biotinamido)pentylamine, incubated for 1 hr, fixed with 3.7% formaldehyde, treated with 0.2% triton X-100, treated with a blocking solution containing 138 mM NaCl, 0.1% Tween 20 and 2% BSA dissolved in a 20 mM Tris (pH 7.6) buffer, incubated for 30 min, incubated with FITC-conjugated streptavidin (1:200, v/v) for 1 hr, and then measured using confocal microscopy to thus determine the fluorescence intensity of single cells.

In assay [3] the test system is TGase. Kind of assay: Analysis of TGase activity in retinas of diabetic mouse model. It counts as in vivo, C57BL/6 mice. The following applies: intravitreal 3 μL of 0.4 mM flumazenil in two administrations and 2 μL of 2 mM midazolam, group excluded from those without significant increase. The protocol:
6-week-old male C57BL/6 mice (DBL, EumSeong, Korea) were administered with streptozotocin (Sigma-Aldrich) dissolved in a 100 mM citrate buffer (pH 4.5) through intraperitoneal injection in an amount of 150 mg each per kg of mouse weight to give diabetic mouse models. In the diabetic mouse models, the blood glucose level was 19 mM or more when not fasting, and polyuria and diabetes, considered signs of diabetes, were observed. […]
48 μL of 100 mM 5-(biotinamido)pentylamine was injected into the left ventricle of each of normal mice (Normal), midazolam-administered normal mice (Midazolam), diabetic mice (Diabetic), midazolam-administered diabetic mice (Diabetic+Midazolam), flumazenil- and midazolam-administered diabetic mice (Diabetic+flumazenil+Midazolam), cystamine-administered diabetic mice (Diabetic+cystamine) and MDC-administered diabetic mice (Diabetic+MDC) and circulated for 10 min, after which cervical dislocation was performed, and the eyeballs were extracted, fixed with 4% paraformaldehyde for 45 min, incised and subjected to permeation treatment for 30 min. The obtained retinal samples were incubated with a blocking solution for 30 min, treated with FITC-conjugated streptavidin (1:200, v/v), stained for 1 hr, and measured using confocal microscopy. […]

Assay [4] concerns retinal vessels of diabetic mice. Kind of assay: Fluorescein angiography for mouse model (retinal vascular leakage). The class given is in vivo, C57BL/6 mice. The following applies: intravitreal 3 μL of 0.4 mM flumazenil in two administrations and 2 μL of 2 mM midazolam, group excluded from those without significant increase.

`CCOC(=O)c1ncn2c1CN(C)C(=O)c1cc(F)ccc1-2` [flumazenil]: the “ROS concentration in midazolam- and VEGF-treated cells after receptor antagonist” value in assay [1] was “an increase in ROS concentration with an increase in flumazenil concentration”. Also, the “TGase activity in midazolam- and VEGF-treated cells after receptor antagonist” value with TGase [2] was “an increase in TGase activity with an increase in flumazenil concentration”. Further, the “TGase activity in retina compared to normal mice, flumazenil given with midazolam” value with TGase [3] was “excluding the diabetic mice (Diabetic) and the flumazenil- and midazolam-administered diabetic mice”. Besides, the “retinal vascular leakage compared to normal mice, flumazenil given with midazolam” value in assay [4] was “excluding the diabetic mice (Diabetic) and the flumazenil- and midazolam-administered diabetic mice”.
